Molecules are shown by their SMILES.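 Interpolation was linear, between the two tested concentrations surrounding the appropriate level; five concentrations were tested over 48 hours in 96-well plates. At the GI50, growth is halved. TGI: concentration producing complete growth inhibition.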

Common to all, as to experiment: NCI anticancer screen, dose series, 48 h
For experiment [1], the system named is COLO 205 colon.
Experiment [2] deals with HL-60(TB) leukemia.
For experiment [3], the system named is HOP-92 NSCLC.
Experiment [4] deals with HT29 colon.
Experiment [5] relates to NCI-H226 lung.
The test system of experiment [6] is PC-3 prostate.
In experiment [7] the test system is SF-268 CNS.
Experiment [8] deals with SK-MEL-2 melanoma.
Experiment [9] deals with TK-10 renal.
Experiment [10] concerns UACC-257 melanoma.

Regarding `COc1ccc(N2CCN(c3nc(-c4ccccn4)nc4sc5c(c34)CCCCCC5)CC2)cc1`, the GI50 in experiment [1] is 5.61 µM; in experiment [2], 4.05 µM; in [3], 3.24 µM; in [4], 5.06 µM; in experiment [5], 6.49 µM; in experiment [6], 3.31 µM. Besides, the GI50 is greater than 100 µM in experiment [7], 18.3 µM in [8], greater than 100 µM in [9] and 7.22 µM in experiment [10]. Besides, the TGI in [1] is greater than 100 µM; in experiment [2] it was 34 µM; in [3] it was greater than 100 µM; in [4] it was greater than 100 µM; in [5] it was greater than 100 µM; in [6] it was greater than 100 µM. In addition, the TGI in [7], in [8], in experiment [9] and in experiment [10] was greater than 100 µM throughout.
For the molecule `Nc1ncnc2c1ncn2Cc1ccc(CCl)cc1`, the GI50 in experiment [1] was 14.2 µM; in experiment [2], 54.7 µM; in [3], 19 µM; in experiment [5], 20.6 µM; in experiment [6], 20.8 µM; in [7], 21.8 µM. Further, the GI50 in experiment [8] is 32.6 µM; in [9], 18.1 µM; in experiment [10] it was 17.9 µM. Besides, the TGI is 31.4 µM in experiment [1]; greater than 100 µM in experiment [2]; 51.6 µM in experiment [3]; 35.3 µM in [5]; 73.1 µM in [6]; 57.9 µM in experiment [7]. For the same molecule, the TGI in experiment [8] stood at 97.5 µM; in experiment [9] it was 65.7 µM; in experiment [10] it was 34.8 µM.
Consider `O=C(Nc1cccc(Cl)c1)Nc1cc(C(F)(F)F)ccc1Cl`, for which the GI50 in [1] was 2.09 µM; in experiment [2] it was 3.02 µM; in [4], 3.03 µM; in experiment [5], 3.25 µM; in [6], 3.86 µM; in experiment [7], 3.55 µM. Moreover, the GI50 is 2.24 µM in experiment [8], 4.29 µM in experiment [9] and 2.66 µM in experiment [10]. Further, the TGI in experiment [1] came to 3.68 µM; in experiment [2] it was 31.3 µM; in experiment [4], 11.3 µM; in experiment [5], 10.5 µM; in [6] it was 32.8 µM; in experiment [7], 11.7 µM. Besides, the TGI in [8] is 5.4 µM; in experiment [9] it was 39.5 µM; in experiment [10], 5.84 µM.
Take `CCN(CC(O)COc1ccc2c(c1)[n+]([O-])nc(N)[n+]2[O-])C(C)=O` (centres undefined): the TGI in experiment [1], in experiment [2], in [4], in experiment [5], in [6] and in [7] was greater than 100 µM each time. Moreover, the TGI in experiment [8], in experiment [9] and in [10] was greater than 100 µM each time.
Take `Cc1c(-c2c(F)cc(C(N)=O)c3[nH]c4c(c23)CC[C@H](C(C)(C)O)C4)cccc1-n1c(=O)c2cccc(F)c2n(C)c1=O`: the GI50 in experiment [2] was 0.971 µM; in [3], 1.01 µM; in [4] it was 0.864 µM; in experiment [5] it was 3.84 µM; in experiment [6], 2.67 µM; in experiment [7] it was 4.91 µM. The GI50 is 3.05 µM in experiment [8], 2.04 µM in experiment [9] and 2.9 µM in experiment [10]. Also, the TGI in [2] is 3.22 µM; in experiment [3] it was 6.94 µM; in [4], greater than 100 µM; in experiment [5], 26.4 µM; in [6], greater than 100 µM; in experiment [7] it was greater than 100 µM. The TGI in [8] was 26 µM; in experiment [9], 8.03 µM; in experiment [10], greater than 100 µM.
As to `COC(=O)C1(N2CCOCC2)CCC([C@@H](c2ccccc2)C(C)[N+](=O)[O-])C1` (some centres undefined), the TGI in experiment [1], in experiment [2], in experiment [4], in [5], in experiment [6] and in [7] was greater than 100 µM each time. For the same molecule, the TGI is greater than 100 µM in experiment [8], greater than 100 µM in experiment [9] and 86.9 µM in experiment [10].
With `COc1cc(/C=C/[N+](=O)[O-])cc(OC)c1`, the GI50 was 1.79 µM in experiment [1]; 2.22 µM in [2]; 4.78 µM in [3]; 3.08 µM in [4]; 17.3 µM in experiment [5]; 2.94 µM in [6]. Further, the results for the GI50 in experiment [7], in experiment [8] and in experiment [10] were 3.62 µM, 2.1 µM and 2.48 µM, respectively. In addition, the TGI in experiment [1] came out at 3.63 µM; in experiment [2] it was 5.68 µM; in [3], 20.5 µM; in experiment [4], 10.4 µM; in experiment [5], 46.1 µM; in [6] it was 8.38 µM. Also, the TGI in experiment [7] was found to be 14.9 µM; in [8] it was 4.76 µM; in experiment [10] it was 7.57 µM.
As for `[N-]=[N+]=NCCCn1c2c(c3ccccc3c1=O)C(=O)c1cc3c(cc1-2)OCO3`, the GI50 in [2] is 43.6 µM; in [3] it was 28.1 µM; in experiment [5], greater than 100 µM; in experiment [6], greater than 100 µM; in experiment [7], 81.7 µM; in experiment [8], greater than 100 µM. For the same molecule, the values for the GI50 in experiment [9] and in experiment [10] were 45.3 µM and greater than 100 µM, respectively. Also, the TGI in experiment [2], in experiment [3], in experiment [5], in experiment [6], in [7] and in [8] was greater than 100 µM each time. Moreover, the TGI in experiment [9] and in experiment [10] was greater than 100 µM throughout.
Consider `Clc1ccc(Nc2nnc(COc3ccccc3)c3ccccc23)cc1`, for which the GI50 was 0.456 µM in experiment [1]; 3.56 µM in experiment [2]; 0.331 µM in experiment [3]; 0.429 µM in [4]; 1.56 µM in experiment [5]; 1.3 µM in [6]. The GI50 in [7] was 2.23 µM; in experiment [8], 0.971 µM; in [10] it was 2.54 µM. In addition, the TGI in experiment [1] is 4.38 µM; in experiment [2], 11.9 µM; in [3] it was 3.09 µM; in [4] it was 4.25 µM; in experiment [5] it was 6.58 µM; in [6], 10.1 µM. Further, the figures for the TGI in [7], in experiment [8] and in [10] were 12.9 µM, 5.13 µM and 5.82 µM, respectively.

The values are drawn from PubChem BioAssay (NCI).
